Broadly, the EC50 is the concentration giving half of the maximal effect. Low values mean greater potency, high ones weaker potency.

Results on 20 compounds are retold here after patent publication US20220089575A1, “FARNESOID X RECEPTOR AGONISTS AND USES THEREOF” (Metacrine, Inc., priority 2017, published 2022).

The assay addresses T1, hFXR (Homo sapiens, UniProt Q96RI1).
T1 construct: expressed in transfected cells; host or cells: CV-1 cells
T1 sequence (Q96RI1 1-486): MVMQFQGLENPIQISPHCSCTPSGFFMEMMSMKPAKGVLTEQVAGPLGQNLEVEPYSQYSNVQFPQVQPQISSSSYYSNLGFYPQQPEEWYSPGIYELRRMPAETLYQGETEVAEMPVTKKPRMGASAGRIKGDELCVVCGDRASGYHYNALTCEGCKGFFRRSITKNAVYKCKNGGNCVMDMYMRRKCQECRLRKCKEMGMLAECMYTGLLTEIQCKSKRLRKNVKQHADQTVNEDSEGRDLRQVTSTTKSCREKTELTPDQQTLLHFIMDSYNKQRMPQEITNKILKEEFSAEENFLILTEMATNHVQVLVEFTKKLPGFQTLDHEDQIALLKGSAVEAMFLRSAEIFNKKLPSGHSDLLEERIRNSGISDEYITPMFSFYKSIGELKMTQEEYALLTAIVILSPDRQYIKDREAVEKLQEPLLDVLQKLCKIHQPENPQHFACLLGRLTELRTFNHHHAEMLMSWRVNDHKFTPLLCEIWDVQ
T1 sequence (P19793 1-462 partner): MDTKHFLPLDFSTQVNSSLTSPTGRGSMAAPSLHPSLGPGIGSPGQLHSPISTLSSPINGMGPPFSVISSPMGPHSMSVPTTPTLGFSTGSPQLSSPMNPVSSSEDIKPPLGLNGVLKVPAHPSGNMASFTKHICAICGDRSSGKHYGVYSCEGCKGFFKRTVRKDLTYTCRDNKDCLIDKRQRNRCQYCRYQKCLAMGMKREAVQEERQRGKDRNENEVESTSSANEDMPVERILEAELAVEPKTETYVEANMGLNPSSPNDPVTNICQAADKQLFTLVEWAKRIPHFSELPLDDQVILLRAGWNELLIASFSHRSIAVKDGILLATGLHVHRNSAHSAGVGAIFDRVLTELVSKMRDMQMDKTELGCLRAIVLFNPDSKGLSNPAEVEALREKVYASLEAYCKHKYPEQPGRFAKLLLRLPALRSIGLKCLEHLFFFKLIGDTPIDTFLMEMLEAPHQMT
Kind of assay: In Vitro FXR Assay (TK): TK-ECRE-luc reporter in transfected CV-1 cells. In kind it is cell-based. The following applies: 18 hrs, luminescence, maximum efficacy of <25% of the Fexarmine control classified as '+'. In outline:
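Luciferase read-out after 18 h compound exposure of CV-1 cells carrying transfected hFXR plus hRXR expression plasmids, TK-ECRE-luc reporter and pCMX-YFP. Cells cultured in charcoal-stripped FBS before transfection; compounds serially diluted in DMSO.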

Regarding `COc1ccc([C@H]2CC[C@H](CN(c3cc(-c4coc(C5CC5)n4)ccn3)C(=O)[C@H]3CC[C@H](OC(=O)NCC(C)(C)O)CC3)CC2)nc1C` [Compound 6.70, trans-4-((4-(2-Cyclopropyloxazol-4-yl)pyridin-2-yl)((trans-4-(5-methoxy-6-methylpyridin-2-yl)cyclohexyl)methyl)carbamoyl)cyclohexyl (2-hydroxy-2-methylpropyl)carbamate], the concentration giving a half-maximal response (EC50) was at most 0.25 µM.

Regarding `COc1ccc([C@H]2CC[C@H](CN(c3cc(-c4coc(C5CC5)n4)ccn3)C(=O)[C@H]3CC[C@H](OC(=O)N4CC(N(C)C)C4)CC3)CC2)nc1C` [Compound 7.79, trans-4-((4-(2-Cyclopropyloxazol-4-yl)pyridine-2-yl)((trans-4-(5-methoxy-6-methylpyridin-2-yl)cyclohexyl)methyl)carbamoyl)cyclohexyl 3-(dimethylamino)azetidine-1-carboxylate], the EC50 was at most 0.25 µM. The value for `CNC(=O)O[C@H]1CC[C@H](C(=O)N(C[C@H]2CC[C@H](c3ccc(OC)c(C)n3)CC2)c2cccc(-c3ccc(N(C)C)nc3)c2)CC1` [Compound 5.41, trans-4-((3-(6-((Dimethylamino)pyridine-3-yl)phenyl)((trans-4-(5-methoxy-6-methylpyridin-2-yl)cyclohexyl)methyl)carbamoyl)cyclohexyl methylcarbamate] was at most 0.25 µM; that for `COC(=O)O[C@H]1CC[C@H](C(=O)N(C[C@H]2CC[C@H](c3ccc(OC)c(C)c3)CC2)c2cccc(-c3cnn(C4CC4)c3)c2)CC1` [Compound 1.07, trans-4-((3-(1-Cyclopropyl-1H-pyrazol-4-yl)phenyl)((trans-4-(4-methoxy-3-methylphenyl)cyclohexyl)methyl)carbamoyl)cyclohexyl methyl carbonate] was at most 0.25 µM.

For `COc1ccc([C@H]2CC[C@H](CN(c3cccc(-c4cnc(C5CC5)s4)c3)C(=O)[C@H]3CC[C@H](NC(=O)COCCN)CC3)CC2)cc1C` [Compound 32.05, trans-4-(2-(2-Aminoethoxy)acetamido)-N-(3-(2-cyclopropylthiazol-5-yl)phenyl)-N-((trans-4-(4-methoxy-3-methylphenyl)cyclohexyl)methyl) cyclohexanecarboxamide], the EC50 is 0.25 to 1 µM. With `COc1ccc([C@H]2CC[C@H](CN(c3cccc(-c4cnn(C5CC5)c4)c3)C(=O)[C@H]3CC[C@H](OC(=O)N4CC(N(C)C)C4)CC3)CC2)cc1C` [Compound 7.27, trans-4-((3-(1-Cyclopropyl-1H-pyrazol-4-yl)phenyl)((trans-4-(4-methoxy-3-methylphenyl)cyclohexyl)methyl)carbamoyl)cyclohexyl 3-(dimethylamino)azetidine-1-carboxylate], the concentration for a half-maximal effect (EC50) is at most 0.25 µM. The result for `COc1ccc([C@H]2CC[C@H](CN(c3cccc(-c4cnn(C5CC5)c4)c3)C(=O)[C@H]3CC[C@H](OC(=O)NC(C)C)CC3)CC2)cc1C` [Compound 4.05, trans-4-((3-(1-Cyclopropyl-1H-pyrazol-4-yl)phenyl)((trans-4-(4-methoxy-3-methylphenyl)cyclohexyl)methyl)carbamoyl)cyclohexyl isopropylcarbamate] reads at most 0.25 µM. As for `COc1ccc(C23CCC(CN(c4cccc(-c5cnc(C6CC6)s5)c4)C(=O)[C@H]4CC[C@H](C(=O)O)CC4)(CC2)CC3)cc1C` [Compound 17.05, trans-4-((3-(2-Cyclopropylthiazol-5-yl)phenyl)((4-(4-methoxy-3-methylphenyl)bicyclo[2.2.2]octan-1-yl)methyl)carbamoyl) cyclohexanecarboxylic acid], the EC50 is at most 0.25 µM.

The compound `CNC(=O)O[C@H]1CC[C@H](C(=O)N(C[C@H]2CC[C@H](c3ccc(OC)c(C)c3)CC2)c2cccc(C#Cc3nccs3)c2)CC1` [Compound 2.04, trans-4-(((trans-4-(4-Methoxy-3-methylphenyl)cyclohexyl)methyl)(3-(thiazol-2-ylethynyl)phenyl)carbamoyl)cyclohexyl methylcarbamate] gave an EC50 of at most 0.25 µM.

With `COc1ccc(C23CCC(CN(c4cc(-c5cnn(C6CC6)c5)ccn4)C(=O)[C@H]4CC[C@H](CC(=O)O)CC4)(CC2)CC3)cc1C` [Compound 20.08, trans-2-(4-((4-(1-Cyclopropyl-1H-pyrazol-4-yl)pyridin-2-yl)((4-(4-methoxy-3-methylphenyl)bicyclo [2.2.2]octan-1-yl)methyl)carbamoyl)cyclohexyl)acetic acid], the EC50 is at most 0.25 µM. The result for `COc1ncc(-c2cccc(N(C[C@H]3CC[C@H](c4ccc(OC)c(C)c4)CC3)C(=O)[C@H]3CC[C@H](C(=O)NS(C)(=O)=O)CC3)c2)s1` [Compound 24.06, trans-N^1-((trans-4-(4-Methoxy-3-methylphenyl)cyclohexyl)methyl)-N^1-(3-(2-methoxythiazol-5-yl)phenyl)-N^4-(methylsulfonyl) cyclohexane-1,4-dicarboxamide] reads at most 0.25 µM; that for `COc1ccc([C@H]2CC[C@H](CN(c3cccc(-c4cnc(C5CC5)s4)c3)C(=O)[C@H]3CC[C@H](c4nnn[nH]4)CC3)CC2)cc1C` [Compound 33, trans-N-(3-(2-Cyclopropylthiazol-5-yl)phenyl)-N-((trans-4-(4-methoxy-3-methylphenyl)cyclohexyl)methyl)-4-(2H-tetrazol-5-yl)cyclohexanecarboxamide], at most 0.25 µM. The compound `CNC(=O)O[C@H]1CC[C@H](C(=O)N(CC23CCC(c4ccc(OC)c(C)c4)(CC2)CC3)c2cccc(-c3cc(C4CC4)ns3)c2)CC1` [Compound 2.08, 4-((3-(3-Cyclopropylisothiazol-5-yl)phenyl)((4-(4-methoxy-3-methylphenyl)bicyclo[2.2.2]octan-1-yl)methyl)carbamoyl)cyclohexyl trans-methylcarbamate] had a concentration for a half-maximal effect (EC50) of at most 0.25 µM. Take `CNC(=O)N[C@H]1CC[C@H](C(=O)N(C[C@H]2CC[C@H](c3ccc(OC)c(C)c3)CC2)c2cccc(-c3cnn(C4CC4)c3)c2)CC1` [Compound 26.37, trans-N-(3-(1-Cyclopropyl-1H-pyrazol-4-yl)phenyl)-N-((trans-4-(4-methoxy-3-methylphenyl)cyclohexyl)methyl)-4-(3-methylureido)cyclohexanecarboxamide]: the EC50 was at most 0.25 µM. As for `COc1ncc(-c2cccc(N(C[C@H]3CC[C@H](c4ccc(OC)c(C)c4)CC3)C(=O)C34CCC(C(=O)O)(CC3)CC4)c2)s1` [Compound 17.02, 4-(((trans-4-(4-Methoxy-3-methylphenyl)cyclohexyl)methyl)(3-(2-methoxythiazol-5-yl)phenyl)carbamoyl)bicyclo[2.2.2]octane-1-carboxylic acid], the 50% effective concentration (EC50) was at most 0.25 µM. The result for `COc1ccc([C@H]2CC[C@H](CN(c3cccc(-c4cnn(C(C)C)c4)c3)C(=O)[C@H]3CC[C@H](OC(=O)NCCO)CC3)CC2)cc1C` [Compound 6.09, trans-4-((3-(1-Isopropyl-1H-pyrazol-4-yl)phenyl)((trans-4-(4-methoxy-3-methylphenyl)cyclohexyl)methyl)carbamoyl)cyclohexyl (2-hydroxyethyl) carbamate] reads at most 0.25 µM; that for `COc1ccc([C@H]2CC[C@H](CN(c3cccc(-c4cnc(C5CC5)s4)c3)C(=O)[C@H]3CC[C@H](NC(=O)OCCO)CC3)CC2)cc1C` [Compound 28, 2-Hydroxyethyl (trans-4-((3-(2-cyclopropylthiazol-5-yl)phenyl)((trans-4-(4-methoxy-3-methylphenyl)cyclohexyl)methyl)carbamoyl)cyclohexyl)carbamate], at most 0.25 µM. Turning to `COc1ccc([C@H]2CC[C@H](CN(c3cccc(-c4cnc(C5CC5)s4)c3)C(=O)[C@H]3CC[C@H](NC(=O)C(C)O)CC3)CC2)cc1C` (stereo partly drawn) [Compound 27.01, trans-N-(3-(2-Cyclopropylthiazol-5-yl)phenyl)-4-(2-hydroxypropanamido)-N-((trans-4-(4-methoxy-3-methylphenyl)cyclohexyl)methyl) cyclohexanecarboxamide], the concentration giving a half-maximal response (EC50) is at most 0.25 µM. The result for `CCC1CN(C(=O)O[C@H]2CC[C@H](C(=O)N(C[C@H]3CC[C@H](c4ccc(OC)c(C)n4)CC3)c3cccc(-c4cnn(C(C)C)c4)c3)CC2)C1` [Compound 7.60, trans-4-((3-(1-Isopropyl-1H-pyrazol-4-yl)phenyl)((trans-4-(5-methoxy-6-methylpyridin-2-yl)cyclohexyl)methyl)carbamoyl)cyclohexyl 3-ethylazetidine-1-carboxylate] reads at most 0.25 µM; that for `CNC(=O)O[C@H]1CC[C@H](C(=O)N(C[C@H]2CC[C@H](c3ccc(OC)c(C#N)c3)CC2)c2cccc(-c3cnn(C(C)C)c3)c2)CC1` [Compound 5.15, trans-4-(((trans-4-(3-Cyano-4-methoxyphenyl)cyclohexyl)methyl)(3-(1-Isopropyl-1H-pyrazol-4-yl)phenyl)carbamoyl)cyclohexyl methylcarbamate], at most 0.25 µM.
